Columns and labels:
Assay in all cases: kinase panel
Format in all cases: biochemical
MEK1(h) = MEK1(h) (Homo sapiens, UniProt Q02750)
Outline: (§1)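 Values are percent inhibition from kinome-wide profiling of three series compounds across 231 kinases, with a structurally similar analogue tested on only 98 selected kinases.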

IR(h) = IR(h) (Homo sapiens, UniProt P06213)
Outline: as §1

TAO1(h) = biological target: T1, TAO1(h) (Homo sapiens, UniProt Q7L7X3)
T1 sequence (Q7L7X3 1-1001): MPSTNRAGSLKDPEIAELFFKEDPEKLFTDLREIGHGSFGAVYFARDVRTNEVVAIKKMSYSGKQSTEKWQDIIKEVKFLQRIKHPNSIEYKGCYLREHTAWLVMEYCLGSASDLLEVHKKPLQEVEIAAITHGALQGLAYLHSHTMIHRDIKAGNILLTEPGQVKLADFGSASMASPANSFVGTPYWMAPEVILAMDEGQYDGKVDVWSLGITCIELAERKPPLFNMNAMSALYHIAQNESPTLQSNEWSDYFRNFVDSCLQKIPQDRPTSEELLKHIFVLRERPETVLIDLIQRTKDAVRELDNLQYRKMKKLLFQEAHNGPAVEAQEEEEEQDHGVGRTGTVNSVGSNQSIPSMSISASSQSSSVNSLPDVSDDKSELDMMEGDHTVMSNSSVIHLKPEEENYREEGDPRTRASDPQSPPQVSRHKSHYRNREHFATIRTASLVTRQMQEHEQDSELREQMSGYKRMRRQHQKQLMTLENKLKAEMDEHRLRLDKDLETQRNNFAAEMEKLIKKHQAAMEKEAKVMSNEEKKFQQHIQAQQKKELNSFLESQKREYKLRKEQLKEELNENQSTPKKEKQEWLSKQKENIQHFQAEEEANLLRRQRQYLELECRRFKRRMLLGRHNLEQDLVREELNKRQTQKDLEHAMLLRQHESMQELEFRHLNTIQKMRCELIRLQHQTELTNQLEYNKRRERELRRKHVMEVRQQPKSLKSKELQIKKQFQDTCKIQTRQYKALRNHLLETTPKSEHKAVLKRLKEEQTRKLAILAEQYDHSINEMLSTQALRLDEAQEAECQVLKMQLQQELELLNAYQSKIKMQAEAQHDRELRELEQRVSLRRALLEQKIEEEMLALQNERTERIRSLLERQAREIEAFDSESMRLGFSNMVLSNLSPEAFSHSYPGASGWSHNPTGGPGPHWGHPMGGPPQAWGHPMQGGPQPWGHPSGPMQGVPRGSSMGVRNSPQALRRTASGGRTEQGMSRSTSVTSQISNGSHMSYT
Outline: as §1

CaMKIIγ(h) = CaMKIIγ(h) (Homo sapiens, UniProt Q13555)
CaMKIIγ(h), sequence (Q13555 whole entry): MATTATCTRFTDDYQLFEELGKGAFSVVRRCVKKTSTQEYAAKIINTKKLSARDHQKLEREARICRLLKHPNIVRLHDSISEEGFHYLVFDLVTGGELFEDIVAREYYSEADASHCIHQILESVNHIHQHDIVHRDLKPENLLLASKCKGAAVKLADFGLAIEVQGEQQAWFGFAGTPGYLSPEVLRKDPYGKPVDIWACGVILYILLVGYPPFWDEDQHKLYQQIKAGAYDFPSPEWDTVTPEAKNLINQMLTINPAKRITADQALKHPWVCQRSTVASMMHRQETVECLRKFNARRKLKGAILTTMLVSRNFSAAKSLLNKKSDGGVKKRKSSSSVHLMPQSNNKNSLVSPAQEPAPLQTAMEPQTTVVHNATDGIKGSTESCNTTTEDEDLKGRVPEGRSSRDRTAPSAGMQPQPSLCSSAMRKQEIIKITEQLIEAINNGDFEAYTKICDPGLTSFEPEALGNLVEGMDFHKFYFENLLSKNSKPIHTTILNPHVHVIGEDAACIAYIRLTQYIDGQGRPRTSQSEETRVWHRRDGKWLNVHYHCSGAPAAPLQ
Outline: as §1

CDK1/cyclinB(h) = CDK1/cyclinB(h) (Homo sapiens, UniProt P06493)
CDK1/cyclinB(h), sequence (P06493 whole entry): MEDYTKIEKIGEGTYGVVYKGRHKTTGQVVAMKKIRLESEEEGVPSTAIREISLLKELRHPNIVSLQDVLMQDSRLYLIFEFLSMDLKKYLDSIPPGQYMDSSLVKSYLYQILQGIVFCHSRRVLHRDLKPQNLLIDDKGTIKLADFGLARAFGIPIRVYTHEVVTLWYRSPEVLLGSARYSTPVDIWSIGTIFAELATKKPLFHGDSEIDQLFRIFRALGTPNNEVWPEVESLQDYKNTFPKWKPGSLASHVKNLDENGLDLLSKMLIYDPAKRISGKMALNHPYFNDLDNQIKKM
CDK1/cyclinB(h), sequence (P14635 whole entry partner): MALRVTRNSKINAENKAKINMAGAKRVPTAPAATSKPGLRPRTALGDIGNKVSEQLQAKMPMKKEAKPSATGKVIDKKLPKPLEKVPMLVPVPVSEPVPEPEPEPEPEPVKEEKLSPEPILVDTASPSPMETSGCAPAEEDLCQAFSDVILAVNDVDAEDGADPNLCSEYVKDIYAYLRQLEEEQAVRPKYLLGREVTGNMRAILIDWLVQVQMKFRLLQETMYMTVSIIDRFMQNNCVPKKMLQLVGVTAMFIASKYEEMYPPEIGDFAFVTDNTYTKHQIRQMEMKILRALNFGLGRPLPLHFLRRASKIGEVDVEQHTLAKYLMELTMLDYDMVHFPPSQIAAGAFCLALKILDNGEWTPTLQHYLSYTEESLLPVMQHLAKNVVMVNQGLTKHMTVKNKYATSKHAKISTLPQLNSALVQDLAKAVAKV
Outline: as §1

MST2(h) = biological target: T2, MST2(h) (Homo sapiens, UniProt Q13188)
T2 sequence (Q13188 1-491): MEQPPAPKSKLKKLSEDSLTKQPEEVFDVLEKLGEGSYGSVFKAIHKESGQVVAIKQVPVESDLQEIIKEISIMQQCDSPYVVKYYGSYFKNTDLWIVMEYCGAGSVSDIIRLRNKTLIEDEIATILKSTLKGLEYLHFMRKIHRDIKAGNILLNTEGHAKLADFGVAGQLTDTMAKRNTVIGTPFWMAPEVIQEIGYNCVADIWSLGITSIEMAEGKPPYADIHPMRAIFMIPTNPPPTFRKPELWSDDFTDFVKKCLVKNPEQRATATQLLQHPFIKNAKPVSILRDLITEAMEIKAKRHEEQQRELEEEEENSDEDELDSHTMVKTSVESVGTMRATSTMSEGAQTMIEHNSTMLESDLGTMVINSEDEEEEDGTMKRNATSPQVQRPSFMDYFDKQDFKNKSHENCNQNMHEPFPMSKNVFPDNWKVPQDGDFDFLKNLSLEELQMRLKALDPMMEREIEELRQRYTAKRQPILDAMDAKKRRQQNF
Outline: as §1

PAK2(h) = PAK2(h) (Homo sapiens, UniProt Q13177)
PAK2(h), sequence (Q13177 whole entry): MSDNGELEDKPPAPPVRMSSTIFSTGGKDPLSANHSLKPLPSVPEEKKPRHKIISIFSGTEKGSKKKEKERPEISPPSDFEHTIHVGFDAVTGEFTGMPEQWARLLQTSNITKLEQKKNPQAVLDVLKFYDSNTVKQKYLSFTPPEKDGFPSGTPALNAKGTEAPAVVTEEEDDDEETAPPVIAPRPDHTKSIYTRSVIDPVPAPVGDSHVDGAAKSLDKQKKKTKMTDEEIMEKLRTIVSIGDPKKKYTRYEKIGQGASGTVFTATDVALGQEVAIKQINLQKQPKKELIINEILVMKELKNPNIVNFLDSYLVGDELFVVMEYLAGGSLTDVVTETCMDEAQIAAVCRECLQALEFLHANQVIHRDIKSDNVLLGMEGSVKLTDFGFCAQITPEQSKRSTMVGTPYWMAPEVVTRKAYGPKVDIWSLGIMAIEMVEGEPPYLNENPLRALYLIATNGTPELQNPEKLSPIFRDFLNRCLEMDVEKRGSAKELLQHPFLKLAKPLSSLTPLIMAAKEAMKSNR
Outline: as §1

JNK3(h) = JNK3(h) (Homo sapiens, UniProt P53779)
JNK3(h), sequence (P53779 whole entry): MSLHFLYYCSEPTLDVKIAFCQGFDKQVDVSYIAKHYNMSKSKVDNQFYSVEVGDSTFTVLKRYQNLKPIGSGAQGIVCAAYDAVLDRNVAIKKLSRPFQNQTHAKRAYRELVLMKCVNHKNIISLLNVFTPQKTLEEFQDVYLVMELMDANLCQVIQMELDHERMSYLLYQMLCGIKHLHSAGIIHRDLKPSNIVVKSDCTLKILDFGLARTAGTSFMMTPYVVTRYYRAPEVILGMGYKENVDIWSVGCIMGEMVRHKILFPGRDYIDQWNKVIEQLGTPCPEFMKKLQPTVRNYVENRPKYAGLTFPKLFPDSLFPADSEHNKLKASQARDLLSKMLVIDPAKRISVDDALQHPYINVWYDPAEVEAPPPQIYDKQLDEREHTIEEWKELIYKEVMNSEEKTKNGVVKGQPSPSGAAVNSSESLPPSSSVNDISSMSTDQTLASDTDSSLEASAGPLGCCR
Outline: as §1

CHK2(h) = CHK2(h) (Homo sapiens, UniProt O96017)
CHK2(h), sequence (O96017 whole entry): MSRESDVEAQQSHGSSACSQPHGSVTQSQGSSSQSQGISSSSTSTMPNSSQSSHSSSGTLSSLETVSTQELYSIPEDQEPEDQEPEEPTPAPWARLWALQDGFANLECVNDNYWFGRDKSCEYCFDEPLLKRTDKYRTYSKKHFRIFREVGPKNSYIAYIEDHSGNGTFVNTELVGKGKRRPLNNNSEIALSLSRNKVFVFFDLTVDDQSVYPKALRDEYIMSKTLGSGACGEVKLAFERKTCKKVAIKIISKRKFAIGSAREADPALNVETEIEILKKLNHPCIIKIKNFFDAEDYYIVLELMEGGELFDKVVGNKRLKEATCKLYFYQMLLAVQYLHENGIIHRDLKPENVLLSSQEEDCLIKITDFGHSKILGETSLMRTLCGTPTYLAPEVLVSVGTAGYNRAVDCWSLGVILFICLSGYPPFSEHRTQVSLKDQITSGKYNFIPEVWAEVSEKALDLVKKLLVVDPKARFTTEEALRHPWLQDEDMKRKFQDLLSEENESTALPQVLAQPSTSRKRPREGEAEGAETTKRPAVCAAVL
Outline: as §1

Plk1(h) = Plk1(h) (Homo sapiens, UniProt P53350)
Plk1(h), sequence (P53350 whole entry): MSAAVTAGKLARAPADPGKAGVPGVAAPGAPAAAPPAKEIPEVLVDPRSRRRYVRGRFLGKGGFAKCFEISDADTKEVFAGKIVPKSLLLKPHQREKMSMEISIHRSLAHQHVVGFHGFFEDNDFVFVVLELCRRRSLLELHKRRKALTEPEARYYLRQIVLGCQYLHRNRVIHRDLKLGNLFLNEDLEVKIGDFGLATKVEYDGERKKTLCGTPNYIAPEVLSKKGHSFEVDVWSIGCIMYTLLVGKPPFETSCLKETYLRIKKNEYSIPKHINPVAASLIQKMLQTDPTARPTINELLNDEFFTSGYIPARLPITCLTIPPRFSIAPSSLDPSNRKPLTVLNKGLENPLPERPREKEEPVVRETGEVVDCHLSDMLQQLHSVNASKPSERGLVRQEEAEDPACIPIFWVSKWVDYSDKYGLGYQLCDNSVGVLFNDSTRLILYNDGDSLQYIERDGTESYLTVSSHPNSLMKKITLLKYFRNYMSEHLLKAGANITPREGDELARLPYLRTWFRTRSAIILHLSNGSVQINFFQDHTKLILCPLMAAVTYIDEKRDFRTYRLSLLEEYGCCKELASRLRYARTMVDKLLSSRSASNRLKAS
Outline: as §1

ALK(h) = ALK(h) (Homo sapiens, UniProt Q9UM73)
Outline: as §1

PAR-1Bα(h) = PAR-1Bα(h) (Homo sapiens, UniProt Q7KZI7)
PAR-1Bα(h), sequence (Q7KZI7 whole entry): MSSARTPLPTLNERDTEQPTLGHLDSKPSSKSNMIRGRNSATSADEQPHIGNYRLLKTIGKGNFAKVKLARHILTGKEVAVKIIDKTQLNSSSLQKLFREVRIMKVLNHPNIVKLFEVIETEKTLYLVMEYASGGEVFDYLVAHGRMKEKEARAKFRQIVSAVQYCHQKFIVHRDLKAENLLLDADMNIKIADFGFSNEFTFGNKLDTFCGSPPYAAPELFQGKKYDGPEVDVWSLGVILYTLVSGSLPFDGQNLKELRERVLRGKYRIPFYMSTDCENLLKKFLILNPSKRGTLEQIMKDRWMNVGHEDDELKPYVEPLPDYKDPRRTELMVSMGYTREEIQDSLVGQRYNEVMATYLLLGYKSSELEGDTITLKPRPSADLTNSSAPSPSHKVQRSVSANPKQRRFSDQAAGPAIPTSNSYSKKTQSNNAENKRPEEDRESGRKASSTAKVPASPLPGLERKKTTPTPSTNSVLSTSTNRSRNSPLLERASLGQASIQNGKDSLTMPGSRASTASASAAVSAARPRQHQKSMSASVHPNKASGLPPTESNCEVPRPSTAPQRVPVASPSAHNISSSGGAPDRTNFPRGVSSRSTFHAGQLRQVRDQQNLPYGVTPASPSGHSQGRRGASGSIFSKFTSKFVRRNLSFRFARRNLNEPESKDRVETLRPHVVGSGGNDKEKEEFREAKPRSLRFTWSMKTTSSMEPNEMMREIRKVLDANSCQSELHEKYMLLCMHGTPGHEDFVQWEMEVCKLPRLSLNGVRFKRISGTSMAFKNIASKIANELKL
Outline: as §1

MEK1(h), sequence (Q02750 whole entry): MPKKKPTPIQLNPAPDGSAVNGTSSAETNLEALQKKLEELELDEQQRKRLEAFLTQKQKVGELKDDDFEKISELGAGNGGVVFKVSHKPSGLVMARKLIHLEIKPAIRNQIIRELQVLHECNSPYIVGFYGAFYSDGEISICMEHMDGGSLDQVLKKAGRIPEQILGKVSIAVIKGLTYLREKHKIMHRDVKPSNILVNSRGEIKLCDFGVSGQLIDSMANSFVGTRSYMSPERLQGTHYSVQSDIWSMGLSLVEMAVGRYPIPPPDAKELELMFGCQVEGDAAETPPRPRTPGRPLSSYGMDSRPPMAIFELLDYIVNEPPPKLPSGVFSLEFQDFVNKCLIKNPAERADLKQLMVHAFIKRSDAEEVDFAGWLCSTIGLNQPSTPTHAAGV

Row | inhibition at 1 µM (MEK1(h)) | inhibition at 1 µM (IR(h)) | inhibition at 1 µM (TAO1(h)) | inhibition at 1 µM (CaMKIIγ(h)) | inhibition at 1 µM (CDK1/cyclinB(h)) | inhibition at 1 µM (MST2(h)) | inhibition at 1 µM (PAK2(h)) | inhibition at 1 µM (JNK3(h)) | inhibition at 1 µM (CHK2(h)) | inhibition at 1 µM (Plk1(h)) | inhibition at 1 µM (ALK(h)) | inhibition at 1 µM (PAR-1Bα(h)) | Compound
1 | 8% | -1% | 5% | 46% | 58% | 4% | 0% | 62% | -5% | 2% | 5% | 20% | Nc1n[nH]c2ccc(-c3ccnc4[nH]c(-c5ccnc(OCc6ccccc6)c5)cc34)cc12 [Compound 6g [SU1349]]
2 | 8% | 50% | 73% | 93% | 101% | 5% | 18% | 99% | 28% | -5% | 56% | 86% | Nc1n[nH]c2ccc(-c3ccnc4[nH]c(-c5ccccc5)cc34)cc12 [Compound 4]
3 | 0% | 4% | 16% | 84% | 77% | -1% | 1% | 86% | 13% | -1% | 27% | 29% | Nc1n[nH]c2ccc(-c3ccnc4[nH]c(-c5cccc(OCc6ccccc6)c5)cc34)cc12 [Compound 5r [SU1261]]
